# Biological target: T1, human factor Xa (Homo sapiens, UniProt P00742)
# T1 construct: purchased Enzyme Research Laboratories
# Assay: Chromogenic peptide substrate (S-2222) assay, inhibition of coagulation factor Xa
# Format: biochemical
# Settings: apparent dissociation constant by Cheng-Prusoff from IC50; human factor Xa 3 nM, substrate S-2222, HNPT buffer pH 7.8, room temperature
# Experimental: Factor Xa activity was measured spectrophotometrically in microtiter plates in a final volume of 150 μl using the following conditions: Inhibition of human factor Xa (Enzyme Research Laboratories) was tested at an enzyme concentration of 3 nM using the chromogenic substrate S-2222 (Chromogenix AB, Mölndal, Sweden) at […]. The reaction kinetics of the enzyme and the substrate were linear with both time and the enzyme concentration. The inhibitors were dissolved in DMSO and tested at various concentrations up to 100 μM. The inhibitors were diluted using HNPT buffer consisting of HEPES 100 mM, NaCl 140 mM, PEG 6000 0.1% and Tween 80 0.02%, pH 7.8. The cleavage of S-2222 by human factor Xa was followed at 405 nm for 5 minutes at room temperature. The velocity of the reaction was determined by the autoreader from the slope of the linear regression fit to 7 time points (1 minute). The initial velocity for each inhibitor concentration was determined by the slope of at least 4 time points in the linear phase by a linear regression fit […]. Apparent dissociation constants Ki were calculated according to Cheng and Prusoff [Cheng, Y. C.; Prusoff, W. H. Relationship between the inhibition constant (Ki) and the concentration of the inhibitor that causes 50 percent inhibition (IC50) of an enzyme reaction. Biochem. Pharmacol. 1973, 22, 3099-3108.] based on the IC50 and the respective Km, determined previously (Ki=IC50/(1+S/Km)). The Km for the substrate used was determined under the conditions of the test with at least 5 substrate concentrations ranging from 0.5 to 15 times Km. [Lottenberg R, Hall J A, Blinder M, Binder E P, Jackson C M., The action of thrombin on peptide p-nitroanilide substrates. Substrate selectivity and examination of hydrolysis under different reaction conditions. Biochim Biophys Acta. 1983 Feb. 15; 742(3):539-57]. According to Eadie [Eadie G. S. The inhibition of cholinesterase by physostigmine and prostigmine. J. Biol. Chem. 1942, 146, 85-93.], the Km for S-2222 amounted to 613 μM.
# T1 sequence (P00742 235-488 limits assumed): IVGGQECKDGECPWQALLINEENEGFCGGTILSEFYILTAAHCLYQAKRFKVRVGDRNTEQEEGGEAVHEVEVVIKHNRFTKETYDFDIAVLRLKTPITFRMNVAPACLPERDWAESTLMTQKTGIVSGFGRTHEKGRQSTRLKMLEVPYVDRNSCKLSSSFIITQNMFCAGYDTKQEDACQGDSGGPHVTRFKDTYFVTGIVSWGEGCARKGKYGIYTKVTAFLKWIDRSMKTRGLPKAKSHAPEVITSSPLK
# T1 sequence (P00742 41-179 partner limits assumed): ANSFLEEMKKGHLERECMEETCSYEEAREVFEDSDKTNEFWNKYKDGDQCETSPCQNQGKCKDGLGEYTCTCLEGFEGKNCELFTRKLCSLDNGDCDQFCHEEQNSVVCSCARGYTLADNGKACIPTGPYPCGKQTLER
row,Compound,Ki
1,"N#CCN1C[C@@H](NC(=O)c2ccc(Cl)s2)C[C@H]1C(=O)Nc1ccc(-n2ccccc2=O)cc1F [Example 6, (2S,4S)-4-[(5-Chloro-thiophene-2-carbonyl)-amino]-1-cyanomethyl-pyrrolidine-2-carboxylic acid[2-fluoro-4-(2-oxo-2H-pyridin-1-yl)-phenyl]-amide]",0.046 µM
2,"O=C(N[C@H]1CC(C(=O)Nc2ccc(-n3ccccc3=O)cc2F)N(CCC(F)(F)F)C1)c1ccc(Cl)s1 (mixture of isomers) [Example 14, (S)-4-[(5-Chloro-thiophene-2-carbonyl)-amino]-1-(3,3,3-trifluoro-propyl)-pyrrolidine-2-carboxylic acid[2-fluoro-4-(2-oxo-2H-pyridin-1-yl)-phenyl]-amide]",0.042 µM
3,"CC(C)(C)OC(=O)N1C[C@@H](NC(=O)c2ccc(Cl)s2)C[C@H]1C(=O)Nc1ccc(-n2ccncc2=O)cc1F [Example 21, (2S,4S)-4-[(5-Chloro-thiophene-2-carbonyl)-amino]-2-[2-fluoro-4-(2-oxo-2H-pyrazin-1-yl)-phenylcarbamoyl]-pyrrolidine-1-carboxylic acid tert-butyl ester]",0.065 µM
4,"O=C(N[C@@H]1CN[C@H](C(=O)Nc2ccc(-n3ccccc3=O)cc2F)C1)c1ccc(Cl)s1 [Example 2, (2S,4S)-4-[(5-Chloro-thiophene-2-carbonyl)-amino]-pyrrolidine-2-carboxylic acid[2-fluoro-4-(2-oxo-2H-pyridin-1-yl)-phenyl]-amide trifluoro-acetate]",0.023 µM

# — patent publication US7601752B2, “Pyrrolidine derivatives” (Hoffmann-La Roche Inc., priority 2005, dated 2009)
